Results taken from patent US8398959B2, “Compositions and methods for imparting a sunless tan with functionalized adjuvants” (Conopco, Inc., priority 2010, dated 2013).
“Also recorded” adds a separate entry of the source.

What was measured:
[1] = Enhancement activity of adjuvant in DHA composition on artificial skin (VitroSkin), color by colorimeter; conditions: for color enhancement activity on artificial skin (in words): adjuvant 0.5-2 wt.% in composition with DHA; for color quality (delta a*/delta b*, visual examination) in words: composition with DHA on artificial skin
Description: General procedure for in vitro testing: DHA, 2.5 weight percent, and 0.5 to 2.0 weight percent adjuvant were formulated into the base (as described in Table 1). About 20 mg of resulting composition was applied to VitroSkin® made available from IMS Company and applied in a circular pattern having a diameter around 2.4 cm. The artificial skin was pre-hydrated under 50% RH for 24 hours before use, and the skin was kept at a temperature of 35° C. under constant relative humidity (RH, 50%). Color development was evaluated with a colorimeter as defined below.
Enhancement activity of pyrrole-2-carboxylic acid was carried out on artificial skin when formulated in a ready-to-use composition with ingredients as described in Table 4 and color was detected and assessed with a colorimeter.

[2] = Enhancement activity of adjuvant in DHA/glycine solution, color change by colorimeter; conditions: adjuvant 0.5-2 wt.% in solution with DHA and glycine
From the text: A control solution was made as follows: Mixing vials were charged with 2.5 weight percent glycine, 2.5 percent by weight DHA and 0.2 M citric/citrate buffer solution to produce the desired control solution, pH 5.6. The balance of the control solutions was water. Compositions consistent with the invention were made as follows: about 0.5 to 2.0 weight percent adjuvant, 2.5 weight percent DHA and 2.5 weight percent glycine were combined, resulting in compositions consistent with this invention with water as the balance. The initial pH of the resulting adjuvant comprising solution was measured and adjusted with NaOH or citric acid, if necessary, to yield an adjuvant comprising solution, pH of about 5.6. The solutions were placed in a 35° C. oven and color change was assessed visually (by taking photos) and by measuring L*a*b* values utilizing a conventional colorimeter. L*a*b* values of the solutions were measured and assessed as set forth below.
Enhancement activity of pyrrole-2-carboxylic acid in solution was carried out on the solutions described in Table 2 and the color of the reaction system was detected and assessed with a colorimeter.
Delta L* was used to characterize color change whereby the larger Delta L* value reflects darker coloring. […] Pyrrole-2-carboxylic acid, therefore, is believed to catalyze the DHA/glycine Maillard reaction.

Compound | color enhancement activity on artificial skin (in words) [1] | DHA enhancement activity / color enhancement in solution (in words) [2] | color quality (delta a*/delta b*, visual examination) in words [1] | DHA enhancement activity / color enhancement in solution (in words) ([2]; listed as 1-H-indole-2-carboxylic acid)
CC(=O)c1cccn1C [2-acetyl-1-methylpyrrole] | color enhancement of artificial skin | surprisingly good color enhancement |  | 
O=C(O)c1ccc[nH]1 [pyrrole-2-carboxylic acid] | DHA color enhancement activity at all tested concentrations | significantly enhanced DHA activity at all concentrations tested | longer lasting and more natural color | 
O=C(O)c1cc2ccccc2[nH]1 [1H-indole-2-carboxylic acid] |  | excellent color enhancement |  | excellent coloring properties
CC(=O)c1ccc[nH]1 [2-acetylpyrrole] | color enhancement of artificial skin | surprisingly good color enhancement |  | 
Cn1cccc1C(=O)O [1-methyl-2-pyrrolecarboxylic acid] | color enhancement activity; also recorded: excellent DHA enhancer | excellent DHA enhancement activity | more natural color via visual examination; also recorded: better than that of the control at all concentrations tested | 
CC(=O)c1ccco1 [2-acetylfuran] | color enhancement of artificial skin |  |  | 
O=C(O)c1ccco1 [2-furoic acid] | color enhancement of artificial skin |  |  | 
O=C(CO)CO [DHA, 1,3-dihydroxy-2-propanone, reference compound] |  |  | yellowish | 
COC(=O)c1ccc[nH]1 [methyl-2-pyrrole carboxylate] |  | surprisingly good color enhancement |  | 
